Like-named read-outs stand apart in the source and are kept apart here. Where a SMILES comes first, the peptide text is derived from it. Bridges are numbered along the chain shown (N, C = ends). Triazole bridges read from a SMILES are 1,4-linked. [ ]: non-standard residue; d: D form. dDap(N3) = [N-]=[N+]=NC[C@@H](N)C(=O)O; dPra = C#CC[C@@H](N)C(=O)O
Experiments:
human KOP [1] = biological target: T1, human KOP (Homo sapiens, UniProt P41145); test: Competition radioligand binding vs 3H-diprenorphine, KOP
T1 construct: expressed in transfected cells; host or cells: CHO cells (membrane preparations)

human KOP [2] = biological target: T1, human KOP; test: 35S-GTPγS coupling assay, KOP; type: biochemical; design: Emax: dose or concentration left out as unconfirmed; conditions: for Emax: read-out: KOP EMax (in parentheses)
Plasma stability assay = type: in vitro ADME; conditions: human plasma, 37 °C, read-out: degradation half-life (t1/2)
Procedure: A plasma stability assay was performed by incubation of compounds in human plasma at a chosen initial concentration (i.e. 5 μM) at 37 °C. The aliquots of the incubated plasma samples were taken at T0 (at the beginning) and at T2 (after 4 hours). Collected samples were spiked with cold acetonitrile to precipitate proteins and prevent the compound from further decomposition. The assay was repeated in triplicate. Plasma aliquots were centrifuged and the supernatant collected and analyzed by LC-MS technique. The instrument responses were referenced to the zero time-point sample (as 100%) in order to determine the percentage of compound remaining after incubation at a given time point. The half-life parameter was calculated from linear regression of time course data.
Plasma and working solutions of experimental and control compounds (at appropriate concentrations) were warmed to 37 °C. 99 µL of plasma was dispensed into a pre-labeled 96-well plate (in triplicate per time-point). Then 1 µL of test compound and reference compound were transferred to wells filled by plasma. 200 µL of cold acetonitrile was added immediately into wells marked as the ‘0’ time point to precipitate proteins and prevent compound from biotransformation. Plates were incubated in a thermostatic shaker at 37 °C while shaken at 350 rpm. […] Samples were analyzed using an LC-MS technique.

[3] = BBB PAMPA assay (porcine brain lipids)
[4] = design: method as in PMID 25755050; conditions: compared with morphine; cited from earlier work
[5] = design: method as in PMID 25755050; conditions: cited from earlier work
[6] = design: method as in PMID 29513114; conditions: cited from earlier work
CD-1 male mice [7] = test: Hot plate test (thermal nociception); type: in vivo; conditions: i.v., 23 μmol.kg−1, mice
CD-1 male mice [8] = test: Formalin test; type: in vivo; conditions: s.c., 100 nmol, 15 min before formalin
Excerpt: The formalin test involves moderate and continuous pain generated by an injured tissue, and the measured response is the time the animals spend licking the injected paw. […] The early phase is caused predominantly by δ-fiber activation, due to a direct effect on nociceptors, while the late phase appears to be an inflammatory response, involving the unmyelinated C-fibre[44].
CD-1 male mice (Harlan, Italy) weighing 25–30 g were used in all the experiments. Before the experimental sessions, the mice were maintained in colony, housed in cages (7 mice per cage) under standard light/dark cycle (from 7:00 AM to 7:00 PM), temperature (21 ± 1 °C) and relative humidity (60 ± 10%) for at least 1 week. Food and water were available ad libitum. […]
Subcutaneous injection of a dilute solution of formalin (1%, 20 μL/paw) into the mice hind paw evoked nociceptive behavioural responses, such as licking, biting the injected paw or both, which are considered indices of nociception. […] The total time the animal spent licking or biting its paw during the early and late phase of formalin-induced nociception was recorded. […]

[9] = cited from earlier work
MOP = MOP agonist activity; read-out: IC50 in the GPI assay; cited from earlier work
DOP = conditions: read-out: IC50 in the MVD assay; DOP agonist activity; cited from earlier work

Q: Which results are given for `NC(=O)[C@H]1Cc2cn(nn2)C[C@@H](NC(=O)[C@@H](N)Cc2ccc(O)cc2)C(=O)NCC(=O)N[C@@H](Cc2ccccc2)C(=O)N1` [NOVA2, H-Tyr-c[DAza-Gly-Phe-DPra]-NH2 triazole] (H-Y[dDap(N3)]GF[dPra]-NH2; triazole 2-5)?
A: Ki (human KOP [1]): > 3330 nM; EC50 (human KOP [2]): > 3330 nM; Emax (human KOP [2]): 68.3 ± 5%; half-life at 5 μM (Plasma stability assay): > 4 h; Mean (%) Mass balance ([3]; PAMPA): 102.22%; Pe value relative to negative control theophylline ([3]; PAMPA): two-fold higher; Classification ([3]; PAMPA BBB permeation class): Low permeation (Pe<2.0→lowpermeation)

Q: Which results are given for `NC(=O)[C@H]1Cn2cc(nn2)C[C@@H](NC(=O)[C@@H](N)Cc2ccc(O)cc2)C(=O)NCC(=O)N[C@@H](Cc2ccccc2)C(=O)N1` [NOVA1, H-Tyr-c[DPra-Gly-Phe-DAza]-NH2 triazole] (H-Y[dPra]GF[dDap(N3)]-NH2; triazole 2-5)?
A: Ki (human KOP [1]): > 3330 nM; EC50 (human KOP [2]): > 3330 nM; Emax (human KOP [2]): 56.7 ± 5.4%

Q: Which antinociceptive response [4] does the source give for Tyr-c^2,4[DLys-Phe-Dab]-CH2CH2NHCONH2 here?
A: The antinociceptive response was “stronger antinociceptive response than that of morphine”.

Q: What about the enzymatic degradation [5] of the same compound?
A: Its enzymatic degradation is “resistant to enzymatic degradation”.

Q: Which Classification ([6]; PAMPA BBB permeation class) does the source give for Dmt-c[D-Lys-Phe-p-CF3-Phe-Asp]NH2 [F18] here?
A: Its Classification is “Low permeation (Pe<2.0→lowpermeation)”.

Q: And the “Mean (%) Mass balance” value ([6]; PAMPA)?
A: Its value is 95.75%.

Q: What does the source list for `CC1(C)SSC(C)(C)[C@@H](NC(=O)[C@@H](N)Cc2ccc(O)cc2)C(=O)NCC(=O)N[C@@H](Cc2ccccc2)C(=O)N[C@H]1C(=O)O` [DPDPE, (D-Pen^2,D-Pen^5)-Enkephalin]?
A: antinociceptive effect (nociceptive threshold), hot plate (CD-1 male mice [7]): ineffective; antinociceptive effect, formalin test, early and late phase (CD-1 male mice [8]): slight but not significant antinociceptive effect; antinociception after i.c.v. administration ([9]; i.c.v.): slightly active until 45 min; antinociception after s.c. administration ([9]; s.c.): completely inactive

Q: For “cyclo(N^ε,N^β’-carbonyl-D-Lys^2,Dap^5)-enkephalinamide”, which IC50 (MOP) is on record?
A: Its IC50 is 0.21 nM.

Q: What about the IC50 (DOP) of the same compound?
A: Its IC50 is 0.65 nM.
